From article PMC12348882, “Rational Design, Synthesis and In Vitro Activity of Diastereomeric Cis-/Trans-3-Substituted-3,4-Dihydroisocoumarin-4-Carboxylic Acids as Potential Carnitine Acetyltransferase Inhibitors” (Molecules, 2025) come the findings set out here.

Experiment [1] addresses T1, carnitine acetyltransferase (CAT) (Columba livia, UniProt P52826).
T1 construct: an enzyme isolated from pigeon breast muscle (Sigma Aldrich) was used in the form of an ammonium sulfate suspension; tissue Sigma-Aldrich; host or cells: pigeon breast muscle
T1 sequence (P52826 31-627): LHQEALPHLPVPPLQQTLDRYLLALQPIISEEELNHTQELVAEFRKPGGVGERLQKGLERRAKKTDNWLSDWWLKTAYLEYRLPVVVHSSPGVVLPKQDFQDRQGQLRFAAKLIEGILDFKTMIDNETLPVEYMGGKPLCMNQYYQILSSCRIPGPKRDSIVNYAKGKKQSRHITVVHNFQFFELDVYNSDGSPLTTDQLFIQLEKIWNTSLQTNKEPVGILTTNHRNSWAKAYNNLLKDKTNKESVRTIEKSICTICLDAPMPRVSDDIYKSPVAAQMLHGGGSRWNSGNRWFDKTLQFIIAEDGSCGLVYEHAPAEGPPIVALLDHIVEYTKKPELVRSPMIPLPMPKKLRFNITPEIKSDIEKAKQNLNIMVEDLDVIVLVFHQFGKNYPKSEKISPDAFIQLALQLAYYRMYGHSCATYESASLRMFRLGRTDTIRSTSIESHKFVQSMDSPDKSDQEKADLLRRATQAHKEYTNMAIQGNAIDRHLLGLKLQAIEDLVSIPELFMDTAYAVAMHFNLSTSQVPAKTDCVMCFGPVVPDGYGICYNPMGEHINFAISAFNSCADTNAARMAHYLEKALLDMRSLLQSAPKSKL
Nature of the experiment: Initial screening of CAT inhibition, spectrophotometric kinetic method with Ellman's reagent. It is filed as biochemical. The conditions noted are these: read in first minute of reaction; for inhibition at 100 µM: read-out: CAT inhibition (%), inhibitor 100 μM; for inhibition at 250 µM: read-out: CAT inhibition (%), inhibitor 250 μM; for inhibition at 1000 µM: read-out: CAT inhibition (%), inhibitor 1000 μM. As to the method:
To assess the inhibitory potential of the synthesized compounds against CAT, we conducted an initial screening at three concentrations: 100 μM, 250 μM and 1000 μM. Readings were taken within the first minute after the reaction started, and inhibition was measured using a kinetic method, as described in the Experimental section. The results are summarized and presented as a percentage of inhibition in Figure 2 and Figure 3 for the 3-alkyl-3,4-dihydroisocoumarin-4-carboxylic acids and the 3-alkyl/3-aryl-6,7-dimethoxy-3,4-dihydroisocoumarin-4-carboxylic acids, respectively.
To determine the effect of the synthesized compounds on CAT activity, a modified procedure for spectrophotometric determination of L-carnitine using Ellman’s reagent was used. In all analyses, an enzyme isolated from pigeon breast muscle (Sigma Aldrich) was used in the form of an ammonium sulfate suspension with an activity of 71 U/mg protein. One unit of enzyme catalyzes the conversion of 1 μmol of L-carnitine and acetyl-CoA into acetylcarnitine and free CoA in 1 min. Phosphate buffer (0.5 M, pH = 7.6) is used to dilute the enzyme to obtain a stock solution with a concentration of 24 U/mL.
Ellman’s reagent was prepared immediately before each measurement by dissolving 25 mg DTNB in 5 mL 1 mM solution of Na2EDTA in phosphate buffer (0.5 M, pH = 7.6). Stock solutions of acetyl-CoA and L-carnitine were prepared in deionized water with concentrations of 348.0 μM and 303.4, respectively. An aqueous solution of tris (hydroxymethyl) aminomethane (TRIS) with pH = 7.6 and 1 M concentration was used as a buffer solution. Test compounds were dissolved and diluted in phosphate buffer (0.5 M, pH = 7.6) to the desired stock concentration. The working volume of the reaction is 300 μL and contains 50 μL of each of the six components (DTNB, TRIS, acetyl-CoA, CAT, L-carnitine and inhibitor) solutions with concentrations as described below. In the control samples, the inhibitor solution is replaced with phosphate buffer (0.5 M, pH = 7.6). The incubation time for all components without L-carnitine is 5 min at 37 °C. The reaction was started by adding L-carnitine, and its progress was monitored by reading the change in absorbance at 405 nm in kinetic mode. The concentrations of the components in the final volume were, c (DTNB) = 114 μM, c (TRIS) = 100 mM, c (acetyl-CoA) = 58 μM, c (CAT) = 4 U/mL and c (L-carnitine) = 50.56 μM. The time for reading the results was the first minute after starting the reaction.

For experiment [2], the target named is T1, carnitine acetyltransferase (CAT). Nature of the experiment: Kinetic studies of CAT inhibition mechanism (Michaelis-Menten / Lineweaver-Burk, SigmaPlot regression). It is filed as biochemical, pigeon. The conditions noted are these: for Type / mechanism of inhibition: model chosen by R^2, AIC and Sy,x. The text has this:
These experiments allowed us to identify the inhibition mechanism and calculate Km, Vmax and Ki. We used SigmaPlot version 12.5 (Systat Software Inc., San Jose, CA, USA), which includes modules for regression analysis and various inhibition models. This software also lets us choose the mechanism of inhibition with the highest correlation factors (coefficient of determination (R^2) and Akaike information coefficient (AIC)) and the lowest Sy,x value. The numerical results are summarized in Table 1, while the corresponding Lineweaver–Burk and Michaelis–Menten kinetic plots are available in the Supplementary Materials.
(Michaelis-Menten) and 1/v0 vs. […] (Lainweaver-Burke) relationships. For this purpose, five solutions with different concentrations of the inhibitor and five solutions with different concentrations of L-carnitine were prepared. […] The time for reading the results is every six seconds for three minutes after the start of the reaction, which corresponds to the end of the linear interval. The initial velocity v0 was determined using the method proposed by Baici, by calculating the cut-off of the v vs. t (time) dependence for the linear interval of each of the reactions. Graphical dependencies are provided in the Supplementary Materials (Figures S1–S3).
Figure S2. Graphs representing the dependence of the initial velocity (v 0) on the concentration of the substrate [S], according to the model of Michaelis -Menten – left, and Lineweaver-Burk – right, for reversible a) mixed, b) non-competitive, c) uncompetitive and d) competitive inhibition. The concentration of the inhibitor - compound cis-8 are 0 μM, 25.6 μM, 51.2 μM and 68.3 μM, concentration of L-carnitine are 94 μM, 180 μM, 370 μM, 750 μM and 1500 μM.
Figure S3. Graphs representing the dependence of the initial velocity (v 0) on the concentration of […]
for reversible a) mixed, b) uncompetitive, c) non-competitive and d) competitive inhibition. The concentration of the inhibitor - compound trans-8 are 0 μM, 26.0 μM, 52.0 and 69.4 μM,

Where [3] appears, read: fit to competitive inhibition model.
Where [4] appears, read: fit to non-competitive inhibition model.
[5] abbreviates: fit to uncompetitive inhibition model.

Consider `CCCC1OC(=O)c2ccccc2C1C(=O)O` (mixture of isomers) [M2-1, Cis- and Trans-(±)-3-Propyl-3,4-Dihydro-1-Oxo-1H-Isochromene-4-Carboxylic Acids], for which the “CAT inhibition (%)” value in experiment [1] (inhibitor 100 μM) is given as 1%; in experiment [1] (inhibitor 250 μM), 3%; in experiment [1] (inhibitor 1000 μM) it was 7%.

The inhibition is the change of the read-out against control, counted positive when it falls. Turning to `CCCCCCCC1OC(=O)c2ccccc2C1C(=O)O` (racemic) [cis-2, Cis- and Trans-(±)-3-Heptyl-3,4-Dihydro-1-Oxo-1H-Isochromene-4-Carboxylic Acids], in experiment [1], the inhibition at 100 µM is 3%, the inhibition at 250 µM turned out to be 10% and the inhibition at 1000 µM is 16%.

Consider `CCCCCCCCCC1OC(=O)c2ccccc2C1C(=O)O` (racemic) [cis-3, Cis- and Trans-(±)-3,4-Dihydro-3-Nonyl-1-Oxo-1H-Isochromene-4-Carboxylic Acids], for which, in experiment [1], the inhibition at 100 µM amounted to 9%, the inhibition at 250 µM is 28% and the inhibition at 1000 µM worked out at 97%.

Regarding `CCCCCCCCCCC1OC(=O)c2ccccc2C1C(=O)O` (racemic) [cis-4, Cis- and Trans-(±)-3-Decyl-3,4-Dihydro-1-Oxo-1H-Isochromene-4-Carboxylic Acids], the “CAT inhibition (%)” value in experiment [1] (inhibitor 100 μM, 100 µM) worked out at 31%. In experiment [1], the inhibition at 250 µM came to 96% and the inhibition at 1000 µM was 97%.

For `CCCCCCCC1OC(=O)c2cc(OC)c(OC)cc2C1C(=O)O` (racemic) [cis-6, Cis- and Trans-(±)-3-Heptyl-3,4-Dihydro-6,7-Dimethoxy-1-Oxo-1H-Isochromene-4-Carboxylic Acids], the inhibition at 1000 µM in experiment [1] was determined as 27%.

As for `CCCCCCCCCC1OC(=O)c2cc(OC)c(OC)cc2C1C(=O)O` (racemic) [cis-7, Cis- and Trans-(±)-3,4-Dihydro-6,7-Dimethoxy-3-Nonyl-1-Oxo-1H-Isochromene-4-Carboxylic Acids], in experiment [1], the inhibition at 100 µM worked out at 8%, the inhibition at 250 µM came out at 43% and the inhibition at 1000 µM worked out at 85%.

With `COc1cc2c(cc1OC)C(C(=O)O)C(c1cccc(OC)c1OC)OC2=O` (racemic) [cis-10, Cis- and Trans-(±)-3,4-Dihydro-3-(2,3-Dimethoxyphenyl)-6,7-Dimethoxy-1-Oxo-1H-Isochromene-4-Carboxylic Acids], in experiment [1], the inhibition at 100 µM stood at 1%, the inhibition at 250 µM was 2% and the inhibition at 1000 µM worked out at 12%.

For the compound `CCCCCCCC1OC(=O)c2ccccc2C1C(=O)O` (racemic) [trans-2, Cis- and Trans-(±)-3-Heptyl-3,4-Dihydro-1-Oxo-1H-Isochromene-4-Carboxylic Acids], the “CAT inhibition (%)” value in experiment [1] (inhibitor 100 μM, 100 µM) was 4%; in experiment [1] (inhibitor 250 μM, 250 µM), 6%; in experiment [1] (inhibitor 1000 μM, 1000 µM), 25%.

Turning to `CCCCCCCCCC1OC(=O)c2ccccc2C1C(=O)O` (racemic) [trans-3, Cis- and Trans-(±)-3,4-Dihydro-3-Nonyl-1-Oxo-1H-Isochromene-4-Carboxylic Acids], the “CAT inhibition (%)” value in experiment [1] (inhibitor 100 μM, 100 µM) worked out at 17%; in experiment [1] (inhibitor 250 μM, 250 µM), 40%; in experiment [1] (inhibitor 1000 μM, 1000 µM) it was 91%.

Consider `CCCCCCCCCCC1OC(=O)c2ccccc2C1C(=O)O` (racemic) [trans-4, Cis- and Trans-(±)-3-Decyl-3,4-Dihydro-1-Oxo-1H-Isochromene-4-Carboxylic Acids], for which the “CAT inhibition (%)” value in experiment [1] (inhibitor 100 μM, 100 µM) is recorded as 54%; in experiment [1] (inhibitor 250 μM, 250 µM), 79%; in experiment [1] (inhibitor 1000 μM), 97%.

By Ki is commonly meant a dissociation constant, usually derived from enzyme kinetics or from competition with a known ligand. Regarding `CCCCCCCCCCC1OC(=O)c2cc(OC)c(OC)cc2C1C(=O)O` (racemic) [trans-8, Cis- and Trans-(±)-3-Decyl-3,4-Dihydro-6,7-Dimethoxy-1-Oxo-1H-Isochromene-4-Carboxylic Acids], the AIC in experiment [2] (setting [3]) was −1490.723; in experiment [2] (fit to mixed inhibition model), −1548.364; in experiment [2] (setting [4]) it was −1542.332; in experiment [2] (setting [5]), −1548.795. The “Sy,x” value in experiment [2] (setting [3]) is given as 7.493 × 10^−9; in experiment [2] (fit to mixed inhibition model) it was 3.576 × 10^−9; in experiment [2] (setting [4]), 3.931 × 10^−9; in experiment [2] (setting [5]), 3.626 × 10^−9. The α was 0.21 in experiment [2] (mixed inhibition model) and 1 in experiment [2] (non-competitive inhibition model). Further, the Ki in experiment [2] (mixed-type inhibition model, L-carnitine varied) was 377 µM. Also, the “Type / mechanism of inhibition” value in experiment [2] is “mixed-type inhibitors”; in experiment [2] (listed as trans-3-decyl-6,7-dimethoxy-3,4-dihydroisocoumarin-4-carboxylic acid), “mixed inhibition”.

For the compound `COc1cc2c(cc1OC)C(C(=O)O)C(c1ccccc1)OC2=O` (racemic) [trans-9, Cis- and Trans-(±)-3,4-Dihydro-6,7-Dimethoxy-1-Oxo-3-Phenyl-1H-Isochromene-4-Carboxylic Acids], in experiment [1], the inhibition at 100 µM worked out at 1%.

With `COc1ccc(OC)c(C2OC(=O)c3cc(OC)c(OC)cc3C2C(=O)O)c1` (stereo not drawn) [cis-11, Cis- and Trans-(±)-3,4-Dihydro-3-(2,5-Dimethoxyphenyl)-6,7-Dimethoxy-1-Oxo-1H-Isochromene-4-Carboxylic Acids], in experiment [1], the inhibition at 100 µM was 1%, the inhibition at 250 µM was found to be 6% and the inhibition at 1000 µM was determined as 22%.
